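Results reflect a 48-hour exposure of cells in 96-well plates to compound at five concentrations. Definition used: TGI = concentration required for complete inhibition of growth.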
How the values were obtained:
Test in all cases: NCI tumour cell line growth inhibition, 48 h
[1] = system: 786-0 renal
[2] = system: A498 renal
[3] = system: A549 NSCLC
[4] = system: ACHN renal
[5] = system: CAKI-1 renal
[6] = system: CCRF-CEM leukemia
[7] = system: COLO 205 colon
[8] = system: DLD-1 colon
[9] = system: DMS 114 small cell lung
[10] = system: DMS 273 small cell lung
[11] = system: EKVX NSCLC
[12] = system: HCC-2998 colon
[13] = system: HCT-116 colon
[14] = system: HCT-15 colon
[15] = system: HL-60(TB) leukemia
[16] = system: HOP-18 NSCLC
[17] = system: HOP-62 NSCLC
[18] = system: HOP-92 NSCLC
[19] = system: HT29 colon
[20] = system: IGROV1 ovarian
[21] = system: K-562 leukemia
[22] = system: KM12 colon
[23] = system: KM20L2 colon
[24] = system: LOX IMVI melanoma
[25] = system: LXFL 529 NSCLC
[26] = system: M14 melanoma
[27] = system: M19-MEL melanoma
[28] = system: MALME-3M melanoma
[29] = system: MOLT-4 leukemia
[30] = system: NCI-H226 lung
[31] = system: NCI-H23 lung
[32] = system: NCI-H460 lung
[33] = system: NCI-H522 lung
[34] = system: OVCAR-4 ovarian
[35] = system: OVCAR-5 ovarian
[36] = system: OVCAR-8 ovarian
[37] = system: RPMI-8226 leukemia
[38] = system: RXF-631 renal
[39] = system: SF-268 CNS
[40] = system: SF-295 CNS
[41] = system: SF-539 CNS
[42] = system: SK-MEL-2 melanoma
[43] = system: SK-MEL-28 melanoma
[44] = system: SK-MEL-5 melanoma
[45] = system: SK-OV-3 ovarian
[46] = system: SN12C renal
[47] = system: SNB-19 CNS
[48] = system: SNB-75 CNS
[49] = system: SNB-78 CNS
[50] = system: SR leukemia
[51] = system: SW-620 colon
[52] = system: TK-10 renal
[53] = system: U251 CNS
[54] = system: UACC-257 melanoma
[55] = system: UACC-62 melanoma
[56] = system: UO-31 renal
[57] = system: OVCAR-3 ovarian
[58] = system: RXF 393 renal
[59] = system: XF 498 CNS

With `COc1cc(C2=NN(C)C(c3ccc([N+](=O)[O-])o3)C2)cc(OC)c1OC` (stereo not given) the TGI [1] was 42.7 µM, the TGI [2] was > 100 µM and the TGI [3] was > 100 µM. For the same compound, the TGI [4] was > 100 µM, the TGI [5] was > 100 µM and the TGI [6] was 72 µM. For the same compound, the TGI [7] was > 100 µM, the TGI [8] was > 100 µM and the TGI [9] was > 100 µM. For the same compound, the TGI [10] was > 100 µM, the TGI [11] was > 100 µM and the TGI [12] was > 100 µM. The TGI [13] was > 100 µM, the TGI [14] was 32.7 µM and the TGI [15] was > 100 µM. The TGI [16] was > 100 µM, the TGI [17] was > 100 µM and the TGI [18] was > 100 µM. The TGI [19] was > 100 µM, the TGI [20] was > 100 µM and the TGI [21] was > 100 µM. For the same compound, the TGI [22] was > 100 µM, the TGI [23] was > 100 µM and the TGI [24] was > 100 µM. The TGI [25] was > 100 µM, the TGI [26] was > 100 µM and the TGI [27] was > 100 µM. The TGI [28] was > 100 µM, the TGI [29] was > 100 µM and the TGI [30] was > 100 µM. For the same compound, the TGI [31] was > 100 µM, the TGI [32] was > 100 µM and the TGI [33] was > 100 µM. The TGI [34] was > 100 µM, the TGI [35] was > 100 µM and the TGI [36] was > 100 µM. The TGI [37] was 31.8 µM, the TGI [38] was > 100 µM and the TGI [39] was > 100 µM. The TGI [40] was > 100 µM, the TGI [41] was > 100 µM and the TGI [42] was > 100 µM. For the same compound, the TGI [43] was > 100 µM, the TGI [44] was > 100 µM and the TGI [45] was > 100 µM. The TGI [46] was > 100 µM, the TGI [47] was > 100 µM and the TGI [48] was > 100 µM. For the same compound, the TGI [49] was > 100 µM, the TGI [50] was 38.6 µM and the TGI [51] was 30.6 µM. The TGI [52] was > 100 µM, the TGI [53] was > 100 µM and the TGI [54] was > 100 µM. For the same compound, the TGI [55] was > 100 µM and the TGI [56] was > 100 µM.

In the case of `CC1=NN(c2ccccc2)C(=O)C1=C1SCCS1`, the TGI [1] is reported as > 100 µM, the TGI [2] is reported as > 100 µM and the TGI [3] is reported as > 100 µM. The TGI [4] was > 100 µM, the TGI [5] was > 100 µM and the TGI [6] was > 65.5 µM. The TGI [7] was > 56.8 µM, the TGI [8] was > 57.9 µM and the TGI [9] was > 67.7 µM. For the same compound, the TGI [10] was > 100 µM, the TGI [11] was > 100 µM and the TGI [12] was > 100 µM. The TGI [13] was > 64.6 µM, the TGI [14] was > 59.7 µM and the TGI [15] was > 58.9 µM. The TGI [16] was > 100 µM, the TGI [17] was > 100 µM and the TGI [18] was > 85.8 µM. The TGI [19] was > 100 µM, the TGI [20] was > 100 µM and the TGI [21] was > 69.1 µM. For the same compound, the TGI [22] was > 100 µM, the TGI [23] was > 100 µM and the TGI [24] was > 63.4 µM. For the same compound, the TGI [25] was > 100 µM, the TGI [26] was > 100 µM and the TGI [27] was > 100 µM. The TGI [28] was > 100 µM, the TGI [29] was > 100 µM and the TGI [30] was > 100 µM. For the same compound, the TGI [31] was > 100 µM, the TGI [32] was > 100 µM and the TGI [33] was 97.1 µM. The TGI [57] was > 100 µM, the TGI [34] was > 100 µM and the TGI [35] was > 100 µM. For the same compound, the TGI [36] was > 100 µM, the TGI [37] was > 49.5 µM and the TGI [58] was > 65.4 µM. The TGI [38] was > 100 µM, the TGI [39] was > 100 µM and the TGI [40] was > 100 µM. The TGI [41] was > 100 µM, the TGI [42] was > 100 µM and the TGI [43] was > 100 µM. For the same compound, the TGI [44] was > 100 µM, the TGI [45] was > 100 µM and the TGI [46] was > 100 µM. For the same compound, the TGI [47] was > 100 µM, the TGI [48] was > 100 µM and the TGI [49] was > 100 µM. For the same compound, the TGI [50] was > 54.4 µM, the TGI [51] was > 53.8 µM and the TGI [52] was > 100 µM. For the same compound, the TGI [53] was > 90.3 µM, the TGI [54] was > 100 µM and the TGI [55] was > 100 µM. The TGI [56] was > 100 µM and the TGI [59] was > 100 µM.

— PubChem BioAssay (NCI)
